“Also recorded” adds a separate entry of the source.
What was measured:
HHDII/DR1 mice = assay: In vivo toxicity in HHDII/DR1 mice; set-up: species or system HHDII/DR1 (HLA‐A2 transgenic) mice; details: 10 nmol in 50 μL s.c., days 1, 8 and 15, n = 3
Procedure: (§1) Animal experiments were carried out with ethical approval from University of Nottingham ethical review board and under a Home Office approved project license (PP2706800). Mice were dosed with 10 nmol of material in 50 μL at Days 1, 8 and 15 (n = 3). IFNϒ ELISpot assays on splenocytes were conducted on termination at Day 21. General methods for the ELISpot can be found in the Supporting Information. Preparation of media and buffers and steps performed on Days 1 and 2 post‐termination; the ELISpot assays were performed using a laminar flow cabinet and aseptic techniques to ensure the sterility of media, reagents and plates at stages before development of the ELISpot. Development of the ELISpot on Day 4 posttermination was performed on the laboratory bench.
(§2) In Vivo Evaluation (ELISpot Assay)
(§3) Animal experiments were carried out with ethical approval from University of Nottingham ethical review boards and under a Home Office approved project license (PP2706800). HLA-HHDII/DR1 (HLA-A2.1+/+ HLADR1+/+, Pasteur Institute) transgenic mice knocked out for murine MHC-I and II and expressing chimeric HLA-A2 (HHDII) and human HLA-DR1 or Balb/c mice (Charles River) aged 6-12 weeks were used. Mice were vaccinated with 10 ηmol of each immunogen at each timepoint. Doses were delivered subcutaneously (s.c.) in 50 µl volume on days 1, 8 and 15. No anaesthesia was used for injections. […]

[1] = SAXS and cryo‐TEM (fibril formation); type: physicochemical; details: 1 wt% aqueous solution
Procedure: Interrogation of the structure of peptide‐adjuvant constructs 2 and 3 was performed using CD spectroscopy as well as modelling studies (PEP‐FOLD). […] Fibril formation by α‐helical peptides is typically observed due to lateral association of coiled‐coils. Here, this may play a role, although lateral interaction of the hydrophobic alkyl chains is likely to be the essential driver for the fibril formation. The fibril core radius 14.0–18.5 Å from SAXS (Table S1) is consistent with the length of an extended Pam lipid chain. […]
windows, with 0.01 mm path length. Spectra were measured using a 0.5 nm step, 1 nm bandwidth and 1 s collection time per step, and a range of 180 to 280 nm. […]
The residue of the calculation was chosen to oscillate around the average, to avoid artifacts in the smoothed curve. CD data, measured in mdeg, was normalized to molar ellipticity using the molar concentration of the sample and the cell path length.
Cryogenic-TEM (Cryo-TEM) Imaging was carried out using a field emission cryo-electron microscope (JEOL JEM-3200FSC), operating at 200 kV. […] The micrographs were recorded using a Gatan Ultrascan 4000 CCD camera. […] Vitrified specimens were prepared using an automated FEI Vitrobot device using Quantifoil 3.5/1 holey carbon copper 200 mesh grids with a hole size of 3.5 µm and […]. […]

IFNγ‐secreting T‐cells = assay: In vivo immunisation, IFNγ ELISpot on splenocytes, HHDII/DR1 mice; set-up: species or system HHDII/DR1 (HLA‐A2 transgenic) mice
Procedure: as §1, §2
as §3, with “injections. Responses were screened on day 21 after euthanasia by cervical dislocation. Preparation of media and buffers and steps performed on days 1 and 2 of the ELISpot assay were performed using a laminar flow cabinet and aseptic techniques to ensure the sterility of media, reagents and plates at stages before development of the ELISpot. Development of the ELISpot on day 4 can be performed on the” for “injections.”
The following tables summarise the details of the vaccine candidates and vaccination procedure including (dose time points):
Table S5. Summary of the injection schedule (including dose concentration and number) for Pam2Cys-SK4-NY-ESO-1157-165 (2) candidate using HHDII/DR1 Tg mice. […]

## 3: vaccine‐adjuvant construct Pam2Cys‐SK4‐NY‐ESO‐1_157‐165 [compound 3]
HHDII/DR1 mice
  In vivo toxicity outcome: non‐toxic
[1]
  Fibril formation: also formed fibrils; also recorded: indicate the formation of fibrils
IFNγ‐secreting T‐cells; healthy HLA‐A2 transgenic (HHDII/DR1) mice, 10 nmol in 50 μL s.c., days 1, 8, 15, n = 3, day 21, versus media‐only negative control
  Immune response (in words): specific but weak responses; also recorded: weakly immunogenic; also recorded: shows activity as a self‐adjuvanting vaccine candidate
IFNγ‐secreting T‐cells; restimulated with NY‐ESO‐1_87‐111 and NY‐ESO‐1_119‐143
  ANOVA significance (in words): not significant
IFNγ‐secreting T‐cells; restimulated with NY‐ESO‐1_157‐165
  ANOVA significance (in words): significant effect
